Measurements: PMC11823630, “In vitro potentiation of tetracyclines in Pseudomonas aeruginosa by RW01, a new cyclic peptide” (Antimicrobial Agents and Chemotherapy, 2024)
≈ marks a conversion by molar mass, not a printed value.

Assays:
[1] = tested on: PAO1 mutant MIN16_1, nalD(T43P); assay: MIC, E-test on MHA; format: cell-based; conditions: Pseudomonas aeruginosa, PAO1, read-out: MIC, E-test
[2] = tested on: PAO1 mutant MIN8_4, pilZ(nt18InsT); assay: MIC, E-test on MHA; format: cell-based; conditions: Pseudomonas aeruginosa, PAO1, read-out: MIC, E-test
P. aeruginosa 125A = assay: MIC, CLSI broth microdilution in BD Phoenix AST Broth; format: cell-based, Pseudomonas aeruginosa; conditions: strain 125A
P. aeruginosa 41A = assay: as above; format: cell-based, Pseudomonas aeruginosa; conditions: strain 41A
P. aeruginosa PAOΔmexZ = assay: as above; format: cell-based, Pseudomonas aeruginosa; conditions: strain PAOΔmexZ
P. aeruginosa PAOUW = assay: as above; format: cell-based, Pseudomonas aeruginosa; conditions: strain PAOUW
P. aeruginosa 125B = assay: as above; format: cell-based, Pseudomonas aeruginosa; conditions: strain 125B
P. aeruginosa PAOΔoprM = assay: as above; format: cell-based, Pseudomonas aeruginosa
P. aeruginosa PAOΔmexR = assay: as above; format: cell-based, Pseudomonas aeruginosa
P. aeruginosa 41B = assay: as above; format: cell-based, Pseudomonas aeruginosa; conditions: strain 41B
P. aeruginosa PAOUW∆oprF = assay: as above; format: cell-based, Pseudomonas aeruginosa
P. aeruginosa PAO1 [3] = assay: as above; format: cell-based, Pseudomonas aeruginosa
[4] = tested on: PAO1 mutant MIN16_4, nalC(T50P), pilM(Q62X); assay: MIC, E-test on MHA; format: cell-based; conditions: Pseudomonas aeruginosa, PAO1, read-out: MIC, E-test
[5] = tested on: PAO1 mutant MIN1_RW01_3, pmrB(V215L); assay: MIC, E-test on MHA; format: cell-based; conditions: Pseudomonas aeruginosa, PAO1, read-out: MIC, E-test
[6] = tested on: PAO1 mutant MIN8_3, pilZ(nt18InsT); assay: MIC, E-test on MHA; format: cell-based; conditions: Pseudomonas aeruginosa, PAO1, read-out: MIC, E-test
P. aeruginosa PAO1 [7] = assay: MIC in the presence of 25% mouse serum; conditions: PAO1, 25% non-inactivated C57BL/6RJ mouse serum
[8] = tested on: PAO1 mutant MIN16_3, nfxB(nt79∆14), pilB(N349K); assay: MIC, E-test on MHA; format: cell-based; conditions: Pseudomonas aeruginosa, PAO1, read-out: MIC, E-test
[9] = tested on: PAO1 mutant MIN2_RW01_1, pmrB(V215L); assay: MIC, E-test on MHA; format: cell-based; conditions: Pseudomonas aeruginosa, PAO1, read-out: MIC, E-test
[10] = tested on: PAO1 mutant MIN32_1, mexR(R63H), pilB(N349K), PA0646(V316G); assay: MIC, E-test on MHA; format: cell-based; conditions: Pseudomonas aeruginosa, PAO1, read-out: MIC, E-test
[11] = tested on: PAO1 mutant MIN2_RW01_2, pmrB(M292T); assay: MIC, E-test on MHA; format: cell-based; conditions: Pseudomonas aeruginosa, PAO1, read-out: MIC, E-test
[12] = tested on: PAO1 mutant MIN4_RW01_4, pmrB(Y98N); assay: MIC, E-test on MHA; format: cell-based; conditions: Pseudomonas aeruginosa, PAO1, read-out: MIC, E-test
[13] = tested on: PAO1 mutant MIN4_RW01_3, pmrB(M292T); assay: MIC, E-test on MHA; format: cell-based; conditions: Pseudomonas aeruginosa, PAO1, read-out: MIC, E-test
[14] = tested on: PAO1 mutant MIN4_RW01_2, pmrB(F124S); assay: MIC, E-test on MHA; format: cell-based; conditions: Pseudomonas aeruginosa, PAO1, read-out: MIC, E-test
[15] = tested on: PAO1 mutant MIN8_2, pilZ(nt18InsT); assay: MIC, E-test on MHA; format: cell-based; conditions: Pseudomonas aeruginosa, PAO1, read-out: MIC, E-test
[16] = Pseudomonas aeruginosa, agent alone, 37°C, 18–22 h, three biological replicates
[17] = antibiotic MIC alone vs with RW01 100 mg/L
[18] = antibiotic with RW01 at 100 mg/L
[19] = MIC of the antibiotic with fixed 100 mg/L RW01
[20] = strain PAOΔoprM, antibiotic with RW01 at 100 mg/L
[21] = strain PAOΔmexR, antibiotic with RW01 at 100 mg/L
[22] = strain PAOUWΔoprF (printed PAOΔoprF), antibiotic with RW01 at 100 mg/L
[23] = strain PAO1, antibiotic with RW01 at 100 mg/L

## C[C@H]1c2cccc(O)c2C(=O)C2=C(O)[C@]3(O)C(=O)C(C(N)=O)=C(O)[C@@H](N(C)C)[C@@H]3[C@@H](O)[C@@H]21 [Doxycycline, doxycycline]
[1]
  MIC: 256 µg/mL (≈ 576 µM)
[2]
  MIC: 256 µg/mL (≈ 576 µM)
P. aeruginosa 125A; [16]
  MIC: 4 µg/mL
P. aeruginosa 125A; [17]
  Potentiation (fold): 8 fold
P. aeruginosa 125A; [18]
  FICI: 0.320
  FICI-determined effect: Synergy (synergistic effect if FICI is ≤0.5)
P. aeruginosa 41A; [16]
  MIC: 16 µg/mL
P. aeruginosa 41A; [19]
  Antibiotic MIC + RW01 100 mg/L: 2 µg/mL
P. aeruginosa 41A; [17]
  Potentiation (fold): 8 fold
P. aeruginosa 41A; [18]
  FICI: 0.223
  FICI-determined effect: Synergy (synergistic effect if FICI is ≤0.5)
P. aeruginosa PAOΔmexZ; [16]
  MIC: 64 µg/mL
P. aeruginosa PAOΔmexZ; [19]
  Antibiotic MIC + RW01 100 mg/L: 4 µg/mL
P. aeruginosa PAOΔmexZ; [17]
  Potentiation (fold): 16 fold
P. aeruginosa PAOΔmexZ; [18]
  FICI: 0.160
  FICI-determined effect: Synergy (synergistic effect if FICI is ≤0.5)
P. aeruginosa PAOUW; Pseudomonas aeruginosa, agent alone, 37°C, 18–22 h, three biological replicates, read-out: MIC
  MIC: 32 µg/mL
P. aeruginosa PAOUW; [19]
  Antibiotic MIC + RW01 100 mg/L: 4 µg/mL
P. aeruginosa PAOUW; [17]
  Potentiation (fold): 8 fold
P. aeruginosa PAOUW; [18]
  FICI: 0.223
  FICI-determined effect: Synergy (synergistic effect if FICI is ≤0.5)
P. aeruginosa 125B; [16]
  MIC: 4 µg/mL
P. aeruginosa 125B; [19]
  Antibiotic MIC + RW01 100 mg/L: 0.5 µg/mL
P. aeruginosa 125B; [17]
  Potentiation (fold): 8 fold
P. aeruginosa 125B; [18]
  FICI: 0.320
  FICI-determined effect: Synergy (synergistic effect if FICI is ≤0.5)
P. aeruginosa PAOΔoprM; Pseudomonas aeruginosa
  MIC: 0.5 µg/mL
P. aeruginosa PAOΔoprM; strain PAOΔoprM, MIC of the antibiotic with fixed 100 mg/L RW01
  Antibiotic MIC + RW01 100 mg/L: 0.125 µg/mL
P. aeruginosa PAOΔoprM; strain PAOΔoprM, antibiotic MIC alone vs with RW01 100 mg/L
  Potentiation (fold): 4 fold
P. aeruginosa PAOΔoprM; [20]
  FICI: 0.348
  FICI-determined effect: Synergy (synergistic effect if FICI is ≤0.5)
P. aeruginosa PAOΔmexR; Pseudomonas aeruginosa
  MIC: 64 µg/mL
P. aeruginosa PAOΔmexR; strain PAOΔmexR, MIC of the antibiotic with fixed 100 mg/L RW01
  Antibiotic MIC + RW01 100 mg/L: 32 µg/mL
P. aeruginosa PAOΔmexR; strain PAOΔmexR, antibiotic MIC alone vs with RW01 100 mg/L
  Potentiation (fold): 2 fold
P. aeruginosa PAOΔmexR; [21]
  FICI: 0.598
  FICI-determined effect: Additivity (additive effect if 0.5 < FICI ≤ 1.0)
P. aeruginosa 41B; [16]
  MIC: 16 µg/mL
P. aeruginosa 41B; [19]
  Antibiotic MIC + RW01 100 mg/L: 2 µg/mL
P. aeruginosa 41B; [17]
  Potentiation (fold): 8 fold
P. aeruginosa 41B; [18]
  FICI: 0.223
  FICI-determined effect: Synergy (synergistic effect if FICI is ≤0.5)
P. aeruginosa PAOUW∆oprF; Pseudomonas aeruginosa, strain PAOUWΔoprF, agent alone, 37°C, 18–22 h, three biological replicates
  MIC: 16 µg/mL
P. aeruginosa PAOUW∆oprF; strain PAOUWΔoprF (printed PAOΔoprF), antibiotic MIC alone vs with RW01 100 mg/L
  Potentiation (fold): 16 fold
P. aeruginosa PAOUW∆oprF; [22]
  FICI: 0.160
  FICI-determined effect: Synergy (synergistic effect if FICI is ≤0.5)
P. aeruginosa PAOUW∆oprF; strain PAOUWΔoprF, MIC of the antibiotic with fixed 100 mg/L RW01
  Antibiotic MIC + RW01 100 mg/L: 1 µg/mL
P. aeruginosa PAO1 [3]; Pseudomonas aeruginosa, PAO1, strain PAO1, agent alone, 37°C, 18–22 h, three biological replicates, read-out: MIC
  MIC: 16 µg/mL
P. aeruginosa PAO1 [3]; strain PAO1, MIC of the antibiotic with fixed 100 mg/L RW01
  Antibiotic MIC + RW01 100 mg/L: 1 µg/mL
P. aeruginosa PAO1 [3]; strain PAO1, antibiotic MIC alone vs with RW01 100 mg/L
  Potentiation (fold): 16 fold
P. aeruginosa PAO1 [3]; [23]
  FICI: 0.258
  FICI-determined effect: Synergy (synergistic effect if FICI is ≤0.5)
[4]
  MIC: 128 µg/mL (≈ 288 µM)
[5]
  MIC: 64 µg/mL (≈ 144 µM)
[6]
  MIC: 128 µg/mL (≈ 288 µM)
P. aeruginosa PAO1 [7]; antibiotic alone
  MIC in the presence of serum: unchanged
P. aeruginosa PAO1 [7]; antibiotic with RW01 100 mg/L
  MIC + RW01 in the presence of serum: unchanged
[8]
  MIC: 192 µg/mL (≈ 432 µM)
[9]
  MIC: 96 µg/mL (≈ 216 µM)
[10]
  MIC: 256 µg/mL (≈ 576 µM)
[11]
  MIC: 128 µg/mL (≈ 288 µM)
[12]
  MIC: 64 µg/mL (≈ 144 µM)
[13]
  MIC: 128 µg/mL (≈ 288 µM)
[14]
  MIC: 64 µg/mL (≈ 144 µM)
[15]
  MIC: 256 µg/mL (≈ 576 µM)
